Source: ChEMBL document CHEMBL4411318, “Discovery of a Series of 2'-α-Fluoro,2'-β-bromo-ribonucleosides and Their Phosphoramidate Prodrugs as Potent Pan-Genotypic Inhibitors of Hepatitis C Virus” (J Med Chem, 2019)

Assays:
[1] = biological target: RNA-directed RNA polymerase (Hepacivirus hominis) (UniProt O39930); settings: Hepatitis C virus subtype 1b
Description: Inhibition of NS5B polymerase in wild type HCV genotype 1b infected in human Huh7 replicon cells after 5 days by RT-PCR assay

[2] = biological target: RNA-directed RNA polymerase (Hepacivirus hominis) (UniProt O39930); settings: genotype 1b/3a
Description: Inhibition of NS5B polymerase in HCV genotype 1b/3a chimeric replicon infected in human HuH7 replicon cells after 5 days by RT-PCR analysis

Bone marrow cell [3] = experiment: Cytotoxicity against human bone marrow cells assessed as inhibition of burst forming unit-erythroid after 14 days by FACS analysis; assay type: cell-based; settings: 336 h
[4] = Cytotoxicity against human PBMC assessed reduction in cell viability after 5 days by MTT assay; assay type: cell-based; settings: PBMC
in vitro [5] = settings: human, liver microsomes
Description: Intrinsic clearance in human liver measured from intrinsic clearance in human liver microsomes in presence of NADPH regenerating system by LC/MS/MS analysis

[6] = Cytotoxicity against human CCRF-CEM assessed reduction in cell viability after 4 days by MTT assay; assay type: cell-based; settings: CCRF-CEM cells
[7] = Drug metabolism in human HuH7 cells assessed as Tmax for NTP formation at 10 uM after 2 to 48 hrs by LC-MS/MS analysis; assay type: ADME, cell-based; settings: huh-7, 10 µM
HepG2 [8] = experiment: Mitochondrial toxicity in human HepG2 cells assessed as lactic acid production at 50 uM followed by medium plus drugs replenishment every 3 to 4 days for 14 days relative to control; assay type: cell-based; settings: hepg2, 336 h
[9] = system: nuclear ribosomal-DNA level; experiment: in vitro; settings: human, HepG2 cells
[10] = biological target: RNA-directed RNA polymerase (Hepacivirus hominis) (UniProt O39930); experiment: Inhibition of NS5B polymerase in HCV genotype 2a infected in human HuH7 replicon cells after 5 days by RT-PCR analysis; assay type: cell-based; settings: Hepatitis C virus subtype 2a
Bone marrow cell [11] = experiment: Cytotoxicity against human bone marrow cells assessed as inhibition of colony-forming unit-granulocyte after 14 days by FACS analysis; assay type: cell-based; settings: 336 h
[12] = system: cytochrome c oxidase subunit 2 DNA level; experiment: Mitochondrial toxicity in human HepG2 cells assessed as inhibition of cytochrome c oxidase subunit 2 DNA level at 50 uM followed by medium plus drugs replenishment every 3 to 4 days for 14 days relative to control; assay type: cell-based
[13] = biological target: RNA-directed RNA polymerase (Hepacivirus hominis) (UniProt O39930); experiment: Inhibition of NS5B polymerase in HCV genotype 1b/5a chimeric replicon infected in human HuH7 replicon cells after 5 days by RT-PCR analysis; assay type: cell-based
[14] = biological target: RNA-directed RNA polymerase (Hepacivirus hominis) (UniProt O39930); experiment: Inhibition of NS5B polymerase in HCV genotype 1b/4a chimeric replicon infected in human HuH7 replicon cells after 5 days by RT-PCR analysis; assay type: cell-based
[15] = Mitochondrial toxicity in human HepG2 cells assessed as reduction in cell viability after 3 days in presence of galactose supplemented media by ATP depletion assay; assay type: cell-based
[16] = Stability in simulated intestinal fluid after 24 hrs by LC/MS/MS analysis; assay type: ADME; settings: simulated gi fluid
[17] = Half life in human intestinal microsomes by LC/MS/MS analysis; assay type: ADME, Intestine, Microsome
in vitro [18] = settings: human, liver microsomes; remark: listed apart in the source
Description: Half life in human liver microsomes in presence of NADPH regenerating system by LC/MS/MS analysis

[19] = Mitochondrial toxicity in human HepG2 cells assessed as reduction in cell viability after 14 days in presence of glucose supplemented media by ATP depletion assay; assay type: cell-based
in vitro [20] = settings: human, liver microsomes; remark: listed apart in the source
Description: Stability in human liver microsomes assessed as compound remaining in absence of NADPH regenerating system after 60 mins by LC/MS/MS analysis

[21] = Cytotoxicity against human HuH7 cells assessed reduction in cell viability after 3 to 5 days by MTT assay; assay type: cell-based, Huh-7
[22] = Stability in human plasma assessed as compound remaining at 2 uM after 120 mins by LC/MS/MS analysis; assay type: ADME, cell-free; settings: read-out: Stability
in vitro [23] = settings: human, liver microsomes; remark: listed apart in the source
Description: Intrinsic clearance in human liver microsomes in presence of NADPH regenerating system by LC/MS/MS analysis

[24] = system: cytochrome c oxidase subunit 2 DNA level; experiment: Mitochondrial toxicity in human HepG2 cells assessed as inhibition of cytochrome c oxidase subunit 2 DNA level followed by medium plus drugs replenishment every 3 to 4 days for 14 days relative to control; assay type: cell-based
[25] = Mitochondrial toxicity in human HepG2 cells assessed as reduction in cell viability after 3 days in presence of glucose supplemented media by ATP depletion assay; assay type: cell-based
[26] = Drug uptake in Beagle dog liver at 10 mg/kg, po measured up to 4 hrs by LC-MS/MS analysis; settings: in vivo, BLD = below limit of detection
[27] = Drug metabolism in Beagle dog liver assessed as formation of triphosphate form parent nucleoside at 10 mg/kg, po measured up to 4 hrs by LC-MS/MS analysis; settings: in vivo
[28] = system: nuclear ribosomal-DNA level; experiment: Mitochondrial toxicity in human HepG2 cells assessed as inhibition of nuclear ribosomal-DNA level at 50 uM followed by medium plus drugs replenishment every 3 to 4 days for 14 days relative to control; assay type: cell-based
[29] = Cardiotoxicity against human embryonic stem cell-induced ventricular cardiomyocytes administered on day 7 and measured on day 10 after 30 mins incubation by CellTiter Glo assay; assay type: toxicity, cell-based, Cardiac muscle cell
[30] = biological target: T1, DNA polymerase alpha catalytic subunit (Homo sapiens, UniProt P09884); experiment: Inhibition of human DNA polymerase alpha using 5-end radiolabeled 24nt to 48nt DNA as primer template after 5 mins in presence of dCTP/dGTP/dTTP/dATP by PAGE analysis
T1 sequence (P09884 whole entry): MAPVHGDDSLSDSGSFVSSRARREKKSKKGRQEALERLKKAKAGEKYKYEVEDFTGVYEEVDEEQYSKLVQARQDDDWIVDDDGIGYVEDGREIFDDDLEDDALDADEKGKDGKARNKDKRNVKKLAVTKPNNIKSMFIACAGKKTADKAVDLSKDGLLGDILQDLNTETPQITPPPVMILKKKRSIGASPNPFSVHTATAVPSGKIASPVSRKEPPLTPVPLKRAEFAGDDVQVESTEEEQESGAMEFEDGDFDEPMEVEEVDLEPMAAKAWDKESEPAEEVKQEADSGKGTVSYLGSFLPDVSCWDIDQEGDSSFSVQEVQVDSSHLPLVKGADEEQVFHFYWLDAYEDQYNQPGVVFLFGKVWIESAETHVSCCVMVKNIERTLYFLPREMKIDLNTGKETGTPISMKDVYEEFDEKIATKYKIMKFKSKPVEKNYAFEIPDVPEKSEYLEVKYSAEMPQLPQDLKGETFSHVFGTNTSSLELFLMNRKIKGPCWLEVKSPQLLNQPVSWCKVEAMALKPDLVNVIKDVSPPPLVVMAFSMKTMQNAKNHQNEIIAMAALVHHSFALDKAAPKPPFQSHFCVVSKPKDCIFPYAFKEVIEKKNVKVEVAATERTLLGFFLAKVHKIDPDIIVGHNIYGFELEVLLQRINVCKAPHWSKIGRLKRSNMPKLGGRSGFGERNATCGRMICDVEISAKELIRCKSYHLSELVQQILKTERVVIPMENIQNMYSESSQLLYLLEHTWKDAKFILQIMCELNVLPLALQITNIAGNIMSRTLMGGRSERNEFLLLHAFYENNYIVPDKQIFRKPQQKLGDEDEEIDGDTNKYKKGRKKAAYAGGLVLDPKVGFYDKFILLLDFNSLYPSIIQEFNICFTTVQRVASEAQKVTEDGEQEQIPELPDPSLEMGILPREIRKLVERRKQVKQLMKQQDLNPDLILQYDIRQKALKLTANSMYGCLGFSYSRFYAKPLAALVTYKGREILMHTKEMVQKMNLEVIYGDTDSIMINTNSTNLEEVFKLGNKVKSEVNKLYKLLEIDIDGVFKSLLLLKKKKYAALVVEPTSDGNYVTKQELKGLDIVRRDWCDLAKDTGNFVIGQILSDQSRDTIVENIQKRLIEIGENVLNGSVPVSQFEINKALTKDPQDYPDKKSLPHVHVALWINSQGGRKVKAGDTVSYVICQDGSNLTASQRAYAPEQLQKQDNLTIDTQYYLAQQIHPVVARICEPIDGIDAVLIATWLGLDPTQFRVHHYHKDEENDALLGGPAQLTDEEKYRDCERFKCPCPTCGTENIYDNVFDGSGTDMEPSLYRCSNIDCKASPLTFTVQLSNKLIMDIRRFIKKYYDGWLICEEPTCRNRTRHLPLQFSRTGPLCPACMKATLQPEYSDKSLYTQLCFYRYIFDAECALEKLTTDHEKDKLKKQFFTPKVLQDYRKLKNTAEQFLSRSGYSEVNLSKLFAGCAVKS

[31] = Inhibition of human DNA polymerase gamma using 5-end radiolabeled 24nt to 48nt DNA as primer template after 120 mins in presence of dCTP/dGTP/dTTP/dATP by PAGE analysis
[32] = biological target: DNA-directed RNA polymerase, mitochondrial (Homo sapiens, UniProt O00411); experiment: Substrate activity at human POLRMT assessed as 5-radiolabled RNA/DNA incorporation levels at 100 uM after 2 hrs by PAGE analysis; assay type: ADME
Sequence of DNA-directed RNA polymerase, mitochondrial (O00411 whole entry): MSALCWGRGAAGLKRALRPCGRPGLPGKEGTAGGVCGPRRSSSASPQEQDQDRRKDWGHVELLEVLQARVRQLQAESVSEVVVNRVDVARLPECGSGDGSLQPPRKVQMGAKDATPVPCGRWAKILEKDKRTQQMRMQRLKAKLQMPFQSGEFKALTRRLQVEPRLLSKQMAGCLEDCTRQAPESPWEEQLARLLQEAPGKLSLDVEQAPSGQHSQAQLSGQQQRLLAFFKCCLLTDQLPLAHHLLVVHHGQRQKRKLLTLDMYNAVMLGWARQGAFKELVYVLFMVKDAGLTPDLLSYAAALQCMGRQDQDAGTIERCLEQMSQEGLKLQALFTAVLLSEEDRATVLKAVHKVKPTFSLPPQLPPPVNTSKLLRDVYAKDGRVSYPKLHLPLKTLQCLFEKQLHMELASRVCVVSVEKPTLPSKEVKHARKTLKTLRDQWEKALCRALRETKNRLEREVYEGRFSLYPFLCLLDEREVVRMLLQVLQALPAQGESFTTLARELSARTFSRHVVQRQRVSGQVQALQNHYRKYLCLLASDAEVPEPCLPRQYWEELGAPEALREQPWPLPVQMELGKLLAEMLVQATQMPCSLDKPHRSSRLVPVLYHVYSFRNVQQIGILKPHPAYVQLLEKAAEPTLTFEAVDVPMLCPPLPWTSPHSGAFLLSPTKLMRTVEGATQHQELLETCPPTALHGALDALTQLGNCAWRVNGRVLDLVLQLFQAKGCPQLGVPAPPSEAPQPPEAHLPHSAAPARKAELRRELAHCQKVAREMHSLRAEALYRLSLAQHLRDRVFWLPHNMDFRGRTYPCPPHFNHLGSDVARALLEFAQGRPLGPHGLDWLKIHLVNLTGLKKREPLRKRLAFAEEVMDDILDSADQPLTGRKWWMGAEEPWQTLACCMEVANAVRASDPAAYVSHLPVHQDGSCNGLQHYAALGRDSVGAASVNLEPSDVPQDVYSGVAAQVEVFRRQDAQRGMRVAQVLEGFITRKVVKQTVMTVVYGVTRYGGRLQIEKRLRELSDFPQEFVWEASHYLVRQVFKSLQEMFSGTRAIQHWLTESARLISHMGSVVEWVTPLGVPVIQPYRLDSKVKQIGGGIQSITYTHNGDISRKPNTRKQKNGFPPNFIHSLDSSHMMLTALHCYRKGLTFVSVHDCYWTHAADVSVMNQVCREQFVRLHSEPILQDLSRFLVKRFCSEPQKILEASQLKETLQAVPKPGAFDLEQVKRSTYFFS

DNA polymerase beta = DNA polymerase beta (Homo sapiens, UniProt P06746); experiment: Inhibition of human DNA polymerase beta using 5-end radiolabeled 24nt to 48nt DNA as primer template after 5 mins in presence of dCTP/dGTP/dTTP/dATP by PAGE analysis
[33] = system: cytochrome c oxidase subunit 2 DNA level; experiment: Mitochondrial toxicity in human HepG2 cells assessed as inhibition of cytochrome c oxidase subunit 2 DNA level at 10 uM followed by medium plus drugs replenishment every 3 to 4 days for 14 days relative to control; assay type: cell-based
HepG2 [34] = experiment: Mitochondrial toxicity in human HepG2 cells 10 uM followed by medium plus drugs replenishment every 3 to 4 days for 14 days relative to control; assay type: cell-based; settings: hepg2, 336 h
[35] = system: nuclear ribosomal-DNA level; experiment: in vitro; settings: human, HepG2 cells; remark: listed apart in the source

Sequence of RNA-directed RNA polymerase (Hepacivirus hominis) (O39930 1-591): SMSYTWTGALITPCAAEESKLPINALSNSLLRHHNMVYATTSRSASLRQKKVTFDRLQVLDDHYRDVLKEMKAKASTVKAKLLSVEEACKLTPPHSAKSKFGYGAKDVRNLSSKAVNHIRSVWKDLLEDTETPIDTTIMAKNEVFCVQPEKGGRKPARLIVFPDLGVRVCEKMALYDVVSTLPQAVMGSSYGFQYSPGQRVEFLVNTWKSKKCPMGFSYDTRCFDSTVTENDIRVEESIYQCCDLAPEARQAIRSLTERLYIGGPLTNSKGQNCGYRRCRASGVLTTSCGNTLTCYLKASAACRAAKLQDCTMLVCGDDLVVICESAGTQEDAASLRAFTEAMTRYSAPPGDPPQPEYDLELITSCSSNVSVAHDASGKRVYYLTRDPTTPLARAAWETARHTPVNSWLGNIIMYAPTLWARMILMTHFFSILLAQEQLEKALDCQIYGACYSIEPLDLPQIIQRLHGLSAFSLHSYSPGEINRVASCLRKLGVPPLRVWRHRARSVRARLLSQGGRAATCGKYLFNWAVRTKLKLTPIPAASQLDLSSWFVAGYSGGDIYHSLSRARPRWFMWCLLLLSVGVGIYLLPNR

CC(C)OC(=O)[C@H](C)N[P@@](=O)(OC[C@H]1O[C@@H](n2ccc(=O)[nH]c2=O)C(F)(Br)C1O)Oc1ccccc1 (single isomer, unassigned)
EC90 [1]: 0.53 to 2.4 µM | EC90 [2]: 1.6 µM | IC50 (Bone marrow cell [3]): > 100 µM | CC50 at 120 h [4]: > 100 µM | CLint scaled (in vitro [5]): 67.8 mL/min/kg | CC50 at 96 h [6]: > 100 µM | Tmax [7]: 24 h | Activity (HepG2 [8]): 100% | IC50 at 14 days [9]: > 50 µM | EC90 [10]: 0.83 µM | IC50 (Bone marrow cell [11]): > 100 µM | inhibition at 336 h, 50 µM [12]: 31% | EC90 [13]: 0.8 µM | EC90 [14]: 0.87 µM | IC50 at 3 days [15]: > 100 µM | Stability [16]: Stable | half-life [17]: 2.2 h | half-life (in vitro [18]): 0.307 h | IC50 at 14 days [19]: > 100 µM | remaining at 1 h (in vitro [20]): 26.6% | CC50 [21]: > 10 µM | remaining at 2 h, 2 µM [22]: 72% | microsomal CLint (in vitro [23]): 75.3 µL/min/mg | IC50 at 14 days [24]: > 50 µM | IC50 at 3 days [25]: > 100 µM | Drug uptake [26]: Bld | Drug metabolism [27]: Metabolite_Notdetected | inhibition at 336 h, 50 µM [28]: < 1% | IC50 at 3 days [29]: > 100 µM

C[C@@]1(F)[C@H](O)[C@@H](COP(=O)(O)OP(=O)(O)OP(=O)(O)O)O[C@H]1n1ccc(=O)[nH]c1=O [GS-461203]
IC50 [30]: > 100 µM | IC50 [31]: > 100 µM | Activity [32]: 3.1% | IC50 (DNA polymerase beta): > 100 µM

Nc1ccn([C@H]2CC[C@@H](CO)O2)c(=O)n1 [ZALCITABINE]
IC50 at 14 days [9]: < 10 µM | inhibition at 336 h, 10 µM [33]: 84% | Activity (HepG2 [34]): 200% | inhibition at 336 h, 10 µM [35]: 50% | IC50 at 14 days [24]: < 10 µM
